Series [1] addresses HSP90α (Homo sapiens, UniProt P07900). Nature of the series: HSP90α Binding Fluorescent Polarization (FP) Assay. The settings on record: competition with FITC-geldanamycin; read-out: HSP90 Binding Potency. The method, boiled down:
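Competitive FP assay in which compound displaces FITC-geldanamycin from recombinant HSP90α (28 μg/ml before addition) in BSA-containing buffer. Compounds in 3-fold series from 40 μM to 2.0 nM (dilution-plate concentrations), tested in duplicate. Readings after 30, 60 and 120 min at 25 °C; background-subtracted mP fitted to four-parameter log[inhibitor]-response curve.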

In series [2] the target is T1, BRD4 (BD1+BD2) (Homo sapiens, UniProt O60885).
T1 construct: 1.8 μg/ml recombinant BRD4 (BD1+BD2 domains) protein
The settings on record: read-out: BRD4 Binding Potency.

In series [3] the test system is MV4-11 cells. Kind of series: MV4-11 Cell Cytotoxicity Assay. Particulars: human, MV4-11 cells, CCK-8. It is filed as cell-based, human. The text has this:
% Inhibition=100−(D−B)/(S−B)*100%.
S: The absorbance of the maximum (cells with DMSO)
B: The absorbance of the minimum (medium with DMSO)

This passage reports IC50 results from patent US20220168427A1 (Ranok Therapeutics (Hangzhou) Co. Ltd., priority 2019, published 2022).

Counter-ions that a name gives are not always drawn. Some results are limits rather than exact numbers.

In the case of `CCc1cc(-c2nnc(C(=O)NCC(F)(F)F)n2-c2ccc(CC3CCN(Cc4ccc(CNC(=O)C[C@@H]5N=C(c6ccc(Cl)cc6)c6c(sc(C)c6C)-n6c(C)nnc65)cc4)CC3)cc2)c(O)cc1O` [Compound 91, (S)-4-(4-((1-(4-((2-(4-(4-chlorophenyl)-2,3,9-trimethyl-6H-thieno[3,2-f][1,2,4]triazolo[4,3-a][1,4]diazepin-6-yl)acetamido)methyl)benzyl)piperidin-4-yl)methyl)phenyl)-5-(5-ethyl-2,4-dihydroxyphenyl)-N-(2,2,2-trifluoroethyl)-4H-1,2,4-triazole-3-carboxamide, trifluoroacetic acid], the IC50 in series [1] and in series [2] was 0.1 to 1 µM throughout. In series [3], this compound had an IC50 at 72 h of less than 0.1 µM.

As for `Cc1sc2c(c1C)C(c1ccc(Cl)cc1)=N[C@@H](CC(=O)N1CCN(Cc3ccc4c(c3)CN(C(=O)c3cc(C(C)C)c(O)cc3O)C4)CC1)c1nnc(C)n1-2` [Compound 141, (S)-2-(4-(4-chlorophenyl)-2,3,9-trimethyl-6H-thieno[3,2-f][1,2,4]triazolo[4,3-a][1,4]diazepin-6-yl)-1-(4-((2-(2,4-dihydroxy-5-isopropylbenzoyl)isoindolin-5-yl)methyl)piperazin-1-yl)ethan-1-one], the IC50 in series [1] and in series [2] was 0.1 to 1 µM each time. Moreover, in series [3], the IC50 at 72 h lay in the range of 0.1 to 1 µM.

On to `Cc1sc2c(c1C)C(c1ccc(Cl)cc1)=N[C@@H](CC(=O)N[C@H](C)c1cccc(CN3CCC(Cc4ccc(-n5c(C(=O)NCC(F)(F)F)nnc5-c5cc(C(C)C)c(O)cc5O)cc4)CC3)c1)c1nnc(C)n1-2` [Compound 97, 4-(4-((1-(3-((R)-1-(2-((S)-4-(4-chlorophenyl)-2,3,9-trimethyl-6H-thieno[3,2-f][1,2,4]triazolo[4,3-a][1,4]diazepin-6-yl)acetamido)ethyl)benzyl)piperidin-4-yl)methyl)phenyl)-5-(2,4-dihydroxy-5-isopropylphenyl)-N-(2,2,2-trifluoroethyl)-4H-1,2,4-triazole-3-carboxamide, trifluoroacetic acid], for which the figures for the IC50 in series [1] and in series [2] were 0.1 to 1 µM and less than 0.1 µM, respectively. In series [3], this compound registered an IC50 at 72 h of less than 0.1 µM.

Take `CCc1cc(-c2nnc(O)n2-c2ccc(CN3CCN(CC4CCN(C(=O)C[C@@H]5N=C(c6ccc(Cl)cc6)c6c(sc(C)c6C)-n6c(C)nnc65)CC4)CC3)cc2)c(O)cc1O` [Compound 10, (S)-2-(4-(4-chlorophenyl)-2,3,9-trimethyl-6H-thieno[3,2-f][1,2,4]triazolo[4,3-a][1,4]diazepin-6-yl)-1-(4-((4-(4-(3-(5-ethyl-2,4-dihydroxyphenyl)-5-hydroxy-4H-1,2,4-triazol-4-yl)benzyl)piperazin-1-yl)methyl)piperidin-1-yl)ethan-1-one hydrochloride]: the IC50 in series [1] and in series [2] was 0.1 to 1 µM throughout. The compound further showed an IC50 at 72 h in series [3] of less than 0.1 µM.

In the case of `Cc1sc2c(c1C)C(c1ccc(Cl)cc1)=N[C@@H](CC(=O)NCCc1ccc(-n3c(O)nnc3-c3cc(C(C)C)c(O)cc3O)cc1)c1nnc(C)n1-2` [Compound 39, 2-((6S)-4-(4-chlorophenyl)-2,3,9-trimethyl-6H-thieno[3,2-f][1,2,4]triazolo[4,3-a][1,4]diazepin-6-yl)-N-(4-(3-(2,4-dihydroxy-5-isopropylphenyl)-5-hydroxy-4H-1,2,4-triazol-4-yl)phenethyl)acetamide], the IC50 in series [1] and in series [2] was 0.1 to 1 µM each time. This compound came in with an IC50 at 72 h in series [3] of less than 0.1 µM.

Regarding `Cc1sc2c(c1C)C(c1ccc(Cl)cc1)=N[C@@H](CC(=O)N1CCC(CCN[C@@H](C)C(=O)N[C@H](C(=O)N3CCC[C@H]3C(=O)Nc3snnc3-c3ccccc3)C3CCCCC3)CC1)c1nnc(C)n1-2` [Compound 130, (S)-1-((S)-2-((S)-2-((2-(1-(2-((S)-4-(4-chlorophenyl)-2,3,9-trimethyl-6H-thieno[3,2-f][1,2,4]triazolo[4,3-a][1,4]diazepin-6-yl)acetyl)piperidin-4-yl)ethyl)amino)propanamido)-2-cyclohexylacetyl)-N-(4-phenyl-1,2,3-thiadiazol-5-yl)pyrrolidine-2-carboxamide], the IC50 in series [1] is greater than 1 µM; in series [2], 0.1 to 1 µM. The compound further returned an IC50 at 72 h in series [3] of 0.1 to 1 µM.

With `Cc1nn(-c2ccc(C(N)=O)c(NCCOCCNC(=O)C[C@@H]3N=C(c4ccc(Cl)cc4)c4c(sc(C)c4C)-n4c(C)nnc43)c2)c2c1C(=O)CC(C)(C)C2` [Compound 20, 2-((2-(2-(2-((6S)-4-(4-chlorophenyl)-2,3,9-trimethyl-6H-thieno[3,2-f][1,2,4]triazolo[4,3-a][1,4]diazepin-6-yl)acetamido)ethoxy)ethyl)amino)-4-(3,6,6-trimethyl-4-oxo-4,5,6,7-tetrahydro-1H-indazol-1-yl)benzamide], the IC50 in series [1] and in series [2] was greater than 1 µM each time. In series [3], this compound came in with an IC50 at 72 h of 0.1 to 1 µM.

In the case of `Cc1sc2c(c1C)C(c1ccc(Cl)cc1)=N[C@@H](CC(=O)N1CCC(CN3CCN(Cc4ccc(-n5c(O)nnc5-c5cc(C(C)C)c(O)cc5O)cc4)CC3)CC1)c1nnc(C)n1-2` [Compound 103, (S)-2-(4-(4-chlorophenyl)-2,3,9-trimethyl-6H-thieno[3,2-f][1,2,4]triazolo[4,3-a][1,4]diazepin-6-yl)-1-(4-((4-(4-(3-(2,4-dihydroxy-5-isopropylphenyl)-5-hydroxy-4H-1,2,4-triazol-4-yl)benzyl)piperazin-1-yl)methyl)piperidin-1-yl)ethan-1-one acetate], the IC50 in series [1] and in series [2] was 0.1 to 1 µM in each case. The compound further returned an IC50 at 72 h in series [3] of less than 0.1 µM.

As to `CCCc1cc(C(=O)N2Cc3ccc(CN4CCN(C(=O)C[C@@H]5N=C(c6ccc(Cl)cc6)c6c(sc(C)c6C)-n6c(C)nnc65)CC4)cc3C2)c(O)cc1O` [Compound 145, (S)-2-(4-(4-chlorophenyl)-2,3,9-trimethyl-6H-thieno[3,2-f][1,2,4]triazolo[4,3-a][1,4]diazepin-6-yl)-1-(4-((2-(2,4-dihydroxy-5-propylbenzoyl)isoindolin-5-yl)methyl)piperazin-1-yl)ethan-1-one], the IC50 in series [1] was 0.1 to 1 µM; in series [2] it was greater than 1 µM. This compound also gave an IC50 at 72 h in series [3] greater than 1 µM.

With `Cc1sc2c(c1C)C(c1ccc(Cl)cc1)=N[C@@H](CC(=O)N1CCC(CN3CCN(Cc4ccc(-n5c(O)nnc5-c5ccc(O)cc5O)cc4)CC3)CC1)c1nnc(C)n1-2` [Compound 4, 2-((6S)-4-(4-chlorophenyl)-2,3,9-trimethyl-6H-thieno[3,2-f][1,2,4]triazolo[4,3-a][1,4]diazepin-6-yl)-1-(4-((4-(4-(3-(2,4-dihydroxyphenyl)-5-hydroxy-4H-1,2,4-triazol-4-yl)benzyl)piperazin-1-yl)methyl)piperidin-1-yl)ethanone, trifluoroacetic acid], the IC50 in series [1] was greater than 1 µM; in series [2] it was less than 0.1 µM. Also, the IC50 at 72 h in series [3] was 0.1 to 1 µM.

Turning to `CCc1cc(-c2nnc(C(N)=O)n2-c2ccc(CN3CCN(CC4CCN(C(=O)C[C@@H]5N=C(c6ccc(Cl)cc6)c6c(sc(C)c6C)-n6c(C)nnc65)CC4)CC3)cc2)c(O)cc1O` [Compound 106, (S)-4-(4-((4-((1-(2-(4-(4-chlorophenyl)-2,3,9-trimethyl-6H-thieno[3,2-f][1,2,4]triazolo[4,3-a][1,4]diazepin-6-yl)acetyl)piperidin-4-yl)methyl)piperazin-1-yl)methyl)phenyl)-5-(5-ethyl-2,4-dihydroxyphenyl)-4H-1,2,4-triazole-3-carboxamide, trifluoroacetic acid], the IC50 in series [1] and in series [2] was 0.1 to 1 µM in each case. In series [3], this compound returned an IC50 at 72 h of less than 0.1 µM.

On to `Cc1sc2c(c1C)C(c1ccc(Cl)cc1)=N[C@@H](CC(=O)NCC(=O)NCC1CCN(C(=O)C3CCN(Cc4ccc(-n5c(O)nnc5-c5cc(C(C)C)c(O)cc5O)cc4)CC3)CC1)c1nnc(C)n1-2` [Compound 46, (S)-2-(4-(4-chlorophenyl)-2,3,9-trimethyl-6H-thieno[3,2-f][1,2,4]triazolo[4,3-a][1,4]diazepin-6-yl)-N-(2-(((1-(1-(4-(3-(2,4-dihydroxy-5-isopropylphenyl)-5-hydroxy-4H-1,2,4-triazol-4-yl)benzyl)piperidine-4-carbonyl)piperidin-4-yl)methyl)amino)-2-oxoethyl)acetamide, trifluoroacetic acid], for which the IC50 in series [1] and in series [2] was less than 0.1 µM in each case. For the same compound, the IC50 at 72 h in series [3] is less than 0.1 µM.

`CCc1cc(-c2nnc(C(=O)NCC(F)(F)F)n2-c2ccc(CC3CCN(CC4CCN(C(=O)C[C@@H]5N=C(c6ccc(Cl)cc6)c6c(sc(C)c6C)-n6c(C)nnc65)CC4)CC3)cc2)c(O)cc1O` [Compound 86, (S)-4-(4-((1-((1-(2-(4-(4-chlorophenyl)-2,3,9-trimethyl-6H-thieno[3,2-f][1,2,4]triazolo[4,3-a][1,4]diazepin-6-yl)acetyl)piperidin-4-yl)methyl)piperidin-4-yl)methyl)phenyl)-5-(5-ethyl-2,4-dihydroxyphenyl)-N-(2,2,2-trifluoroethyl)-4H-1,2,4-triazole-3-carboxamide, trifluoroacetic acid]: the IC50 in series [1] and in series [2] was 0.1 to 1 µM in each case. The IC50 at 72 h in series [3] is less than 0.1 µM.
